Experiments:
Format in all cases: cell-based
many virus = assay: Antivirus studies in vitro, summary over the virus panel; conditions: read-out: EC50 against many virus
Experimental: compounds were diluted to 20 mg/mL in DMSO then prepared in for log 10 dilutions of 100 μg/mL down to 0.1 μg/mL) in MEM solution with 50 μg/mL gentamicin and 2% FBS. Each dilution was added to 5 wells of a 96-well plate with 80-100% confluent cells. Three wells of each dilution were infected with virus, and two wells remained uninfected as toxicity controls. The multiplicity of infection (MOI) was as low as possible to achieve CPE within 3-5 days of incubation. A known active compound was tested in parallel as a control. After untreated virus control wells reached maximum cytopathic effect (CPE), each well was scored microscopically. Plates were then stained with neutral red dye for approximately 2 hours, then supernatant dye was removed from the wells and the incorporated dye was extracted in 50:50 Sorensen citrate buffer/ethanol, then the optical density was read on a spectrophotometer.

Rift Valley fever virus = assay: microbe, parasite or virus in culture; conditions: read-out: In-Vitro Antiviral Screening Result (EC50) E
[1] = tested on: Venezuelan equine encephalitis virus; assay: microbe, parasite or virus in culture; conditions: read-out: In-Vitro Antiviral Screening Result (EC50) G
[2] = tested on: Japanese encepahalitis virus; conditions: read-out: In-Vitro Antiviral Screening Result (EC50) C
Influenza A virus H1N1 = assay: microbe, parasite or virus in culture; conditions: H1N1, read-out: In-Vitro Antiviral Screening Result (EC50) H
SARS coronavirus = assay: microbe, parasite or virus in culture; conditions: Severe acute respiratory syndrome coronavirus, read-out: In-Vitro Antiviral Screening Result (EC50) F

Structure (SMILES) | EC50 (many virus) [µg/mL] | EC50 (Rift Valley fever virus) [µg/mL] | EC50 [1] [µg/mL] | EC50 [2] [µg/mL] | EC50 (Influenza A virus H1N1) [µg/mL] | EC50 (SARS coronavirus) [µg/mL]
C[C@]12CC[C@@H](O)[C@@](C)(CO)C1CCC1(CO1)C2/C=C/C1=CC(=C\c2ccc(-n3ccnc3)cc2)/OC1=O (stereo partly drawn) [Example 77, 11,12-dedihydro-14-deoxy-(E)-15-(4-(1H-imidazol-1-yl)benzylidene)-8,17-epoxyandrographolide] | < 50 | < 50 | > 100 | < 100 | < 100 | < 100
CN(C)c1ccc(/C=C2C=C(/C=C/C3C4(CCC5[C@]3(C)CC[C@@H](O)[C@@]5(C)CO)CO4)C(=O)O\2)c(O)c1 (stereo partly drawn) [Example 78] | < 50 | < 100 | < 100 | < 100 | > 100 | < 50
C=C1CCC2[C@](C)(CC[C@@H](O)[C@@]2(C)CO)C1/C=C/C1=CC(=C\c2ccc(-n3ccnc3)cc2)/OC1=O (stereo partly drawn) [Example 79, 11,12-dedihydro-14-deoxy-(E)-15-(4-(1H-imidazol-1-yl)benzylidene)andrographolide] | < 50 | < 50 | < 50 | < 50 | < 50 | < 50
CC(=O)OCC1(C)C(OC(C)=O)CCC2(C)C(/C=C/C3=CCOC3=O)C3C(=Nc4cncn43)CC12 (stereo not drawn) [Example 95] | < 50 | > 100 | < 100 | > 100 | < 50 | < 50
C=C1C(N2CCOCC2)CC2[C@](C)(CC[C@@H](O)[C@@]2(C)CO)C1/C=C/C1=CC(=C\c2ccc(N(C)C)cc2)/OC1=O (stereo partly drawn) [Example 124] | < 50 | < 50 | < 50 | < 50 | < 100 | < 50
C=C1C(NC(C)C(=O)NC2=NCC=N2)CC2[C@](C)(CC[C@@H](O)[C@@]2(C)CO)C1/C=C/C1=CC(=C\c2ccc(N(C)C)cc2)/OC1=O (stereo partly drawn) [Example 188] | < 50 | < 100 | < 100 | < 100 | > 100 | < 50

— patent US20150150893A1, “ANDROGRAPHOLIDE ANALOGS AND THEIR USE FOR MEDICATION” (LIAONING LIFENG SCIENTIFIC & TECHNOLOGY DEVELOPMENT COMPANY …, priority 2012, published 2015)
